20 molecules from ChEMBL document CHEMBL3352035, “Design and synthesis of new 7-(N-substituted-methyl)-camptothecin derivatives as potent cytotoxic agents” (Bioorg Med Chem Lett, 2014) can be followed below.

In test [1] the test system is KB. In words: Cytotoxicity against human KB cells after 72 hrs sulforhodamine B colorimetric assay. On the technique in general: In SRB staining, fixed cells bind dye roughly in proportion to their protein.
Test [2] in a line: cells. The following applies: Homo sapiens, KBVIN, 72 h.
Description: Cytotoxicity against multidrug-resistant human KBVIN cells after 72 hrs sulforhodamine B colorimetric assay
Test [3] deals with A549. In words: Cytotoxicity against human A549 cells after 72 hrs sulforhodamine B colorimetric assay. The following applies: A549, 72 h.
Test [4] concerns MDA-MB-231. Nature of the test: cells. Conditions: Homo sapiens, MDA-MB-231, 72 h.
Description: Cytotoxicity against human MDA-MB-231 cells after 72 hrs sulforhodamine B colorimetric assay
The test system of test [5] is A549. Nature of the test: Ratio of topotecan IC50 to compound IC50 for human A549 cells after 72 hrs sulforhodamine B colorimetric assay. The format is functional.
The nature of test [6]: Ratio of topotecan IC50 to compound IC50 for multidrug-resistant human KBVIN cells after 72 hrs sulforhodamine B colorimetric assay. The class given is functional.

One may read the IC50 as the concentration that gives 50% inhibition. Turning to `CC[C@@]1(O)C(=O)OCc2c1cc1n(c2=O)Cc2c-1nc1ccccc1c2CNc1ccc(OC)cc1`, the IC50 was determined as 75.8 nM in test [1], 77.3 nM in test [2], 47 nM in test [3] and 84.2 nM in test [4].

As to `CC[C@@]1(O)C(=O)OCc2c1cc1n(c2=O)Cc2c-1nc1ccccc1c2CN1CCCCC1`, the IC50 in test [1] is 49.9 nM; in test [2], 20.5 nM; in test [3], 21.9 nM; in test [4], 69.9 nM.

In the case of `CC[C@@]1(O)C(=O)OCc2c1cc1n(c2=O)Cc2c-1nc1ccccc1c2CN1CCCC1`, the half-maximal inhibitory concentration (IC50) in test [1] is 37.1 nM; in test [2], 20.8 nM; in test [3], 15.5 nM; in test [4], 60.9 nM.

As to `CC[C@@]1(O)C(=O)OCc2c1cc1n(c2=O)Cc2c-1nc1ccccc1c2CN1CCN(C)CC1`, the half-inhibitory concentration (IC50) worked out at 89.5 nM in test [1], 274 nM in test [2], 62.2 nM in test [3] and 110 nM in test [4].

Regarding `CC[C@@]1(O)C(=O)OCc2c1cc1n(c2=O)Cc2c-1nc1ccccc1c2CN(C(C)C)C(C)C`, the half-inhibitory concentration (IC50) in test [1] was found to be 813 nM; in test [2], 1060 nM; in test [3], 534 nM; in test [4], 1110 nM.

`CCCNCc1c2c(nc3ccccc13)-c1cc3c(c(=O)n1C2)COC(=O)[C@]3(O)CC`: the concentration for half-maximal inhibition (IC50) in test [1] came out at 15 nM; in test [2] it was 21.7 nM; in test [3], 4.8 nM; in test [4] it was 31.6 nM. Also, the “Ratio IC50” value in test [5] and in test [6] was 7 throughout.

Consider `CC[C@@]1(O)C(=O)OCc2c1cc1n(c2=O)Cc2c-1nc1ccccc1c2CNCCO`, for which the half-maximal inhibitory concentration (IC50) was determined as 208 nM in test [1], 183 nM in test [2], 150 nM in test [3] and 378 nM in test [4].

Take `CC[C@@]1(O)C(=O)OCc2c1cc1n(c2=O)Cc2c-1nc1ccccc1c2CNc1ccc(C)cc1`: the 50% inhibitory concentration (IC50) in test [1] was 81.7 nM; in test [2], 79.5 nM; in test [3], 58.7 nM; in test [4] it was 92.7 nM.

Regarding `CC[C@@]1(O)C(=O)OCc2c1cc1n(c2=O)Cc2c-1nc1ccccc1c2CNc1ccccc1OC`, the IC50 in test [1] turned out to be 4.6 nM; in test [2] it was 14.9 nM; in test [3] it was 2.3 nM; in test [4], 26.4 nM. Further, the “Ratio IC50” value in test [5] and in test [6] was 7 in each case.

On to `CC[C@@]1(O)C(=O)OCc2c1cc1n(c2=O)Cc2c-1nc1ccccc1c2CNc1ccc(F)cc1`, for which the concentration for half-maximal inhibition (IC50) in test [1] amounted to 5 nM; in test [2] it was 13.2 nM; in test [3], 6.3 nM; in test [4], 30 nM. Besides, the “Ratio IC50” value in test [5] and in test [6] was 7 throughout.

For `CC[C@@]1(O)C(=O)OCc2c1cc1n(c2=O)Cc2c-1nc1ccccc1c2CNc1ccc(Cl)cc1`, the IC50 is 39.7 nM in test [1], 12.9 nM in test [2], 39.1 nM in test [3] and 64.4 nM in test [4].

Take `CC[C@@]1(O)C(=O)OCc2c1cc1n(c2=O)Cc2c-1nc1ccccc1c2CNc1ccc(Br)cc1`: the IC50 in test [1] amounted to 82.1 nM; in test [2], 63.3 nM; in test [3] it was 59.2 nM; in test [4], 114 nM.

In the case of `CC[C@@]1(O)C(=O)OCc2c1cc1n(c2=O)Cc2c-1nc1ccccc1c2CNc1cccc2ccccc12`, the IC50 amounted to 61.5 nM in test [1], 78 nM in test [2], 36.2 nM in test [3] and 64 nM in test [4].

For the molecule `CC[C@@]1(O)C(=O)OCc2c1cc1n(c2=O)Cc2c-1nc1ccccc1c2CNc1cccc(Cl)c1`, the half-maximal inhibitory concentration (IC50) in test [1] worked out at 71.3 nM; in test [2], 68.8 nM; in test [3], 50.4 nM; in test [4] it was 96.1 nM.

For the molecule `CC[C@@]1(O)C(=O)OCc2c1cc1n(c2=O)Cc2c-1nc1ccccc1c2CNc1ccccc1Cl`, the half-inhibitory concentration (IC50) is 37.1 nM in test [1], 12.8 nM in test [2], 17 nM in test [3] and 57.6 nM in test [4].

As to `CC[C@@]1(O)C(=O)OCc2c1cc1n(c2=O)Cc2c-1nc1ccccc1c2CNCc1ccccc1`, the IC50 came to 180 nM in test [1], 117 nM in test [2], 122 nM in test [3] and 337 nM in test [4].

For the molecule `CC[C@@]1(O)C(=O)OCc2c1cc1n(c2=O)Cc2c-1nc1ccccc1c2CNc1ccccn1`, the 50% inhibitory concentration (IC50) in test [1] stood at 78.6 nM; in test [2], 70.6 nM; in test [3], 51.4 nM; in test [4], 108 nM.

For the molecule `CC[C@@]1(O)C(=O)OCc2c1cc1n(c2=O)Cc2c-1nc1ccccc1c2CNc1ccccc1`, the IC50 amounted to 78.3 nM in test [1], 47.9 nM in test [2], 53.2 nM in test [3] and 78.1 nM in test [4].

With `CC[C@@]1(O)C(=O)OCc2c1cc1n(c2=O)Cc2c-1nc1ccccc1c2CNC1CCCCC1`, the 50% inhibitory concentration (IC50) amounted to 36.2 nM in test [1], 16.5 nM in test [2], 18.8 nM in test [3] and 53.2 nM in test [4].

Take `CC(=O)O[C@H]1C(=O)[C@@]2(C)[C@H]([C@H](OC(=O)c3ccccc3)[C@]3(O)C[C@H](OC(=O)[C@H](O)[C@@H](NC(=O)c4ccccc4)c4ccccc4)C(C)=C1C3(C)C)[C@]1(OC(C)=O)CO[C@@H]1C[C@@H]2O` [PACLITAXEL]: the IC50 was found to be 3.9 nM in test [1], 1440 nM in test [2], 5.7 nM in test [3] and 6.6 nM in test [4].
